Measured values as given in US9901578B2, “Combination of 10-propargyl-10-deazaaminopterin and erlotinib for the treatment of non-small cell lung cancer” (Allos Therapeutics, Inc., priority 2007, dated 2018).
pIC50, pKi: −log10 of the molar value. Values joined by “and” are separate entries in the source; they are usually repeats but may differ in a detail not shown here. Identical values can stand only once. “Also recorded” adds a separate entry of the source. Like-named read-outs stand apart in the source and are kept apart here.

What was measured:
A549 cells = assay: In vitro growth inhibition in A549 cells; assay type: cell-based, human
Description: The human non small lung carcinoma cell line A549 was purchased from the American Type Culture Collection (ATCC, Manassas, Va.). The cell line was cultured in Ham's F 12K medium with 2 mM L-glutamine 1.5 g/L sodium bicarbonate, supplemented with 10% fetal bovine serum and was maintained at 37° C. in a humidified atmosphere at 5% CO2 and 95% air.
An in vitro study in A549 cells was performed to compare the growth inhibition activity of PDX to that of cisplatin, paclitaxel, and docetaxel.

H460 cells = assay: Short-term uptake of radiolabeled drug in H460 cells; assay type: cell-based, human; details: for Total uptake of radiolabeled drug: measured at 15 and 60 minutes, PDX, MTX 5 μM, Alimta 20 μM
human recombinant DHFR = molecular target: T1, human recombinant DHFR (Homo sapiens, UniProt P00374); assay: DHFR inhibition in a cell-free assay; assay type: biochemical; details: read-out: Apparent Ki for DHFR inhibition
T1 sequence (P00374 1-187): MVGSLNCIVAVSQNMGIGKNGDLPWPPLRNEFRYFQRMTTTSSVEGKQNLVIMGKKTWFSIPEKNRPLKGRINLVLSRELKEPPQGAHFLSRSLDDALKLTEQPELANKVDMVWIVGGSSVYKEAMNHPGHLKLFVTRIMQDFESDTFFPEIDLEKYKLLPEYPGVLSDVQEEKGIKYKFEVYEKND
From the text: (§1) Endpoints included mean tumor growth inhibition or regression. We further evaluated activity and/or expression of folate-dependent enzymes: DHFR, thymidylate synthase (TS), and folylpolyglutamate synthase (FPGS) using kinetic assays and immunostaining in tumors harvested at the end of the study from animals treated with the antifolates or vehicle controls. In vitro studies included evaluation of reduced folate carrier (RFC) expression by quantitative RT-PCR in MV522, and H460, xenograft models. […] Inhibition of DHFR by the three antifolates was quantified in a cell-free assay against human recombinant DHFR.

[1] = test system: TS enzymatic activity and protein expression, and DHFR protein content; assay: Activity/expression of folate-dependent enzymes in harvested tumors; assay type: in vivo; details: H460 and MV522 tumor xenografts
From the text: as §1

A549 xenograft = A549 xenograft mouse model, tumor volume; assay type: in vivo, athymic nu/nu mice; details: for Effect on tumor growth: 35 days
Description: Xenotransplant of A549 was established by subcutaneous inoculation of 5×10^6 cells on the right flank using a 21G needle in 6-8 week female athymic nude mice. A total of 75 animals were injected with A549 xenotransplant. Tumor volume was monitored twice weekly, once the established tumor reached 75-150 mm^3 (individual tumor range between 70 to 200 mm^3) the mice were randomized to the different groups as described in Table 2.
Tumor volume and body weights were measured twice weekly up to 58 days following A549 inoculation. Tumor volume was calculated using the following formula: Tumor volume=(A^2×B/2) where A is the smallest diameter and B is the largest diameter.
The treatment was initiated on the day of randomization according to the schedule described in Table 2. PDX was administered via IP injection and Tarceva® by oral gavage. PBS and 0.5% CMC were administrated to Group 1 as control vehicles by IP and PO routes, respectively.
Statistical analysis was performed using Graphpad Prism software. Comparison between control group and treatment groups was performed using 2 way ANOVA analysis.

[2] = Description: To evaluate the doses to be tested in the xenograft mouse model, non-tumor bearing female athymice nu/nu mice were treated with 2 mg/kg of PDX alone and in combination with 50 mg/kg of Tarceva® as described in Table 1. Animals were monitored daily for routine health observation. Body weight of the animals was recorded daily during the treatment phase and thereafter twice weekly for 14 days after the last treatment).
H460 xenografts = assay: H460 non-small cell lung carcinoma human tumor xenograft; assay type: in vivo; details: PDX 1 mg/kg and 2 mg/kg
From the text: as §1

[3] = test system: FPGS activity (polyglutamylation); assay: Polyglutamylation of radiolabeled drug in H460 cells; assay type: cell-based, human; details: lysates of treated H460 cells; PDX, MTX 5 μM, Alimta 20 μM
MV522 xenografts = assay: MV522 non-small cell lung carcinoma human tumor xenograft; assay type: in vivo; details: PDX 1 mg/kg and 2 mg/kg
From the text: as §1

Structure (SMILES): CC(=O)O[C@@]12CO[C@@H]1C[C@H](O)[C@@]1(C)C(=O)[C@H](O)C3=C(C)[C@@H](OC(=O)[C@H](O)[C@@H](NC(=O)OC(C)(C)C)c4ccccc4)C[C@@](O)([C@@H](OC(=O)c4ccccc4)[C@H]21)C3(C)C [Docetaxel]
- pIC50 (A549 cells; Homo sapiens): 7.63

Structure (SMILES): C#CCC(Cc1cnc2nc(N)nc(N)c2n1)c1ccc(C(=O)N[C@@H](CCC(=O)O)C(=O)O)cc1 (stereo partly shown) [PDX, 10-Propargyl-10-deazaaminopterin]
- Total uptake of radiolabeled drug (H460 cells): increased over time
- pKi (human recombinant DHFR): 7.35
- Effect on TS enzymatic activity and protein expression, and DHFR protein content [1]: down-regulated most of these endpoints
- Effect on tumor growth (A549 xenograft; PDX 1 mg/kg IP QDx5 two cycles): a trend in reducing tumor growth; also recorded: a trend toward controlling tumor growth
- Tumor volume Avg ± SD (A549 xenograft; PDX 1 mg/kg IP QDx5 two cycles, day 0): 132 ± 52. mm^3
- Tumor volume Avg ± SD (A549 xenograft; PDX 1 mg/kg IP QDx5 two cycles, day 3): 148 ± 67. mm^3
- Tumor volume Avg ± SD (A549 xenograft; PDX 1 mg/kg IP QDx5 two cycles, day 7): 176 ± 87. mm^3
- Tumor volume Avg ± SD (A549 xenograft; PDX 1 mg/kg IP QDx5 two cycles, day 10): 158 ± 93. mm^3
- Tumor volume Avg ± SD (A549 xenograft; PDX 1 mg/kg IP QDx5 two cycles, day 14): 199 ± 79. mm^3
- Tumor volume Avg ± SD (A549 xenograft; PDX 1 mg/kg IP QDx5 two cycles, day 17): 190 ± 78. mm^3
- Tumor volume Avg ± SD (A549 xenograft; PDX 1 mg/kg IP QDx5 two cycles, day 21): 179 ± 112 mm^3
- Tumor volume Avg ± SD (A549 xenograft; PDX 1 mg/kg IP QDx5 two cycles, day 24): 191 ± 105 mm^3
- Tumor volume Avg ± SD (A549 xenograft; PDX 1 mg/kg IP QDx5 two cycles, day 28): 201 ± 114 mm^3
- Tumor volume Avg ± SD (A549 xenograft; PDX 1 mg/kg IP QDx5 two cycles, day 35): 224±128 mm^3
- Effect on tumor growth (A549 xenograft; PDX 2 mg/kg IP QDx5 two cycles): a trend in reducing tumor growth; also recorded: a trend toward controlling tumor growth; also recorded: inhibited the growth of the A549 xenografts
- Tumor volume Avg ± SD (A549 xenograft; PDX 2 mg/kg IP QDx5 two cycles, day 0): 131 ± 49. mm^3
- Tumor volume Avg ± SD (A549 xenograft; PDX 2 mg/kg IP QDx5 two cycles, day 3): 133 ± 60. mm^3
- Tumor volume Avg ± SD (A549 xenograft; PDX 2 mg/kg IP QDx5 two cycles, day 7): 166 ± 75. mm^3
- Tumor volume Avg ± SD (A549 xenograft; PDX 2 mg/kg IP QDx5 two cycles, day 10): 139 ± 70. mm^3
- Tumor volume Avg ± SD (A549 xenograft; PDX 2 mg/kg IP QDx5 two cycles, day 14): 207 ± 100 mm^3
- Tumor volume Avg ± SD (A549 xenograft; PDX 2 mg/kg IP QDx5 two cycles, day 17): 174 ± 104 mm^3
- Tumor volume Avg ± SD (A549 xenograft; PDX 2 mg/kg IP QDx5 two cycles, day 21): 194 ± 114 mm^3
- Tumor volume Avg ± SD (A549 xenograft; PDX 2 mg/kg IP QDx5 two cycles, day 24): 194 ± 101 mm^3
- Tumor volume Avg ± SD (A549 xenograft; PDX 2 mg/kg IP QDx5 two cycles, day 28): 189 ± 106 mm^3
- Tumor volume Avg ± SD (A549 xenograft; PDX 2 mg/kg IP QDx5 two cycles, day 35): 210±109 mm^3
- Tolerability ([2]; PDX 2 mg/kg IP QDx5 two cycles, Tarceva 50 mg/kg PO QDx21, alone or combined): well tolerated
- Tumor growth (H460 xenografts): dose-dependently inhibited tumor growth
- Polyglutamylation [3]: greater polyglutamylation
- Tumor growth (MV522 xenografts): dose-dependently inhibited tumor growth
- pIC50 (A549 cells; Homo sapiens): 7.19

Structure (SMILES): Nc1nc2[nH]cc(CCc3ccc(C(=O)N[C@@H](CCC(=O)O)C(=O)O)cc3)c2c(=O)[nH]1 [Alimta, pemetrexed]
- Total uptake of radiolabeled drug (H460 cells): decreased later
- Polyglutamylation [3]: much lesser polyglutamylation

Structure (SMILES): CN(Cc1cnc2nc(N)nc(N)c2n1)c1ccc(C(=O)N[C@@H](CCC(=O)O)C(=O)O)cc1 [MTX, methotrexate]
- Fraction of radiolabeled drug that entered the cells (H460 cells; in comparison with PDX or Alimta): significantly smaller fraction
- Polyglutamylation [3]: much lesser polyglutamylation

Structure (SMILES): C#Cc1cccc(Nc2ncnc3cc(OCCOC)c(OCCOC)cc23)c1 [Tarceva, [6,7-bis(2-methoxyethoxy)-4-quinazolin-4-yl]-(3-ethynylphenyl)amine, reference compound]
- Effect on tumor growth (A549 xenograft; Tarceva 50 mg/kg PO): did not control tumor growth
- Tumor volume Avg ± SD (A549 xenograft; Tarceva 50 mg/kg PO, day 0): 131 ± 47. mm^3
- Tumor volume Avg ± SD (A549 xenograft; Tarceva 50 mg/kg PO, day 3): 166 ± 80. mm^3
- Tumor volume Avg ± SD (A549 xenograft; Tarceva 50 mg/kg PO, day 7): 216 ± 121 mm^3
- Tumor volume Avg ± SD (A549 xenograft; Tarceva 50 mg/kg PO, day 10): 214 ± 140 mm^3
- Tumor volume Avg ± SD (A549 xenograft; Tarceva 50 mg/kg PO, day 14): 249 ± 130 mm^3
- Tumor volume Avg ± SD (A549 xenograft; Tarceva 50 mg/kg PO, day 17): 271 ± 206 mm^3
- Tumor volume Avg ± SD (A549 xenograft; Tarceva 50 mg/kg PO, day 21): 270 ± 210 mm^3
- Tumor volume Avg ± SD (A549 xenograft; Tarceva 50 mg/kg PO, day 24): 294 ± 261 mm^3
- Tumor volume Avg ± SD (A549 xenograft; Tarceva 50 mg/kg PO, day 28): 308 ± 280 mm^3
- Tumor volume Avg ± SD (A549 xenograft; Tarceva 50 mg/kg PO, day 35): 358±282 mm^3 and 357 ± 282 mm^3
- Tolerability ([2]; mouse, in vivo): well tolerated

Structure (SMILES): CC(=O)O[C@H]1C(=O)[C@@]2(C)[C@H]([C@H](OC(=O)c3ccccc3)[C@]3(O)C[C@H](OC(=O)[C@H](O)[C@@H](NC(=O)c4ccccc4)c4ccccc4)C(C)=C1C3(C)C)[C@]1(OC(C)=O)CO[C@@H]1C[C@@H]2O [Paclitaxel]
- pIC50 (A549 cells; Homo sapiens): 6.96

Structure (SMILES): N.N.[Cl][Pt][Cl] [Cisplatin]
- pIC50 (A549 cells): 7.65
